# From ChEMBL document CHEMBL1132032, “3-Acyloxy-2-phenalkylpropyl amides and esters of homovanillic acid as novel vanilloid receptor agonists” (Bioorg Med Chem Lett, 1999)
# Activity calls are given as the source filed them. The calls are words filed in the database; no cut-off is given here.
# What was measured:
# [1] = biological target: Transient receptor potential cation channel subfamily V member 1 (Rattus norvegicus, UniProt O35433); assay: In vitro binding affinity towards vanilloid receptor by [3H]RTX displacement.
# [2] = biological target: T1, Vanilloid receptor (Rattus norvegicus) (UniProt Q9ERZ8+Q9WUD2+O35433); assay: Cation influx relative to capsaicin (CAP) in cultured neonatal rat dorsal root ganglia (W = Weaker than CAP); assay type: functional
# [3] = biological target: T1, Vanilloid receptor (Rattus norvegicus); assay: Cation influx relative to capsaicin (CAP) in cultured neonatal rat dorsal root ganglia (No response); assay type: functional
# [4] = biological target: T1, Vanilloid receptor (Rattus norvegicus)
# Description: Cation influx relative to capsaicin (CAP) in cultured neonatal rat dorsal root ganglia (+++ = 100xCAP)
# [5] = biological target: T1, Vanilloid receptor (Rattus norvegicus); assay: Cation influx relative to capsaicin (CAP) in cultured neonatal rat dorsal root ganglia (++ = 10xCAP); assay type: functional
# [6] = biological target: T1, Vanilloid receptor (Rattus norvegicus); assay: Cation influx relative to capsaicin (CAP) in cultured neonatal rat dorsal root ganglia (+ = similar to CAP); assay type: functional
# Transient receptor potential cation channel subfamily V member 1, sequence (O35433 whole entry): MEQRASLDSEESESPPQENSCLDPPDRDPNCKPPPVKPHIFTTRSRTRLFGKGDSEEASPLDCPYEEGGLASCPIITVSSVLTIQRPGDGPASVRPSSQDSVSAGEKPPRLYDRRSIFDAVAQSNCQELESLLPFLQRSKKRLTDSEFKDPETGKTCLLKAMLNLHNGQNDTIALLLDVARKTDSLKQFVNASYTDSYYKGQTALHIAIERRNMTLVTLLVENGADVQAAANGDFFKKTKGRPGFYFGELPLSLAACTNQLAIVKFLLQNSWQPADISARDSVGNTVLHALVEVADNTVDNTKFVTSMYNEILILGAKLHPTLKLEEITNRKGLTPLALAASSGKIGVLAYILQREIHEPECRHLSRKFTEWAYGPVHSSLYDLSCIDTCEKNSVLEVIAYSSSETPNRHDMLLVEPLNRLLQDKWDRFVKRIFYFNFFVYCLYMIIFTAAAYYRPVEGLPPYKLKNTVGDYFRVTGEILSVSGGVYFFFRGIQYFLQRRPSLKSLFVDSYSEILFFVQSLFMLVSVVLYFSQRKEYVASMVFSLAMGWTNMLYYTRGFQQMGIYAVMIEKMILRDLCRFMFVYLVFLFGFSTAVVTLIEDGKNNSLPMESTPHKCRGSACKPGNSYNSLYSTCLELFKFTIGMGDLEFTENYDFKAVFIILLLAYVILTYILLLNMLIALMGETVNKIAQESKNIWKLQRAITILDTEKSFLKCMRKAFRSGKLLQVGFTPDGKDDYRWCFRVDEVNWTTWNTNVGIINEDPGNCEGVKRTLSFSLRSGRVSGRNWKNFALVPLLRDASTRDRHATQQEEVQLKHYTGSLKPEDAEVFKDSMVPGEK
# T1 sequence (O35433 whole entry, looked up): as the sequence (O35433 whole entry) above
# T1 sequence (Q9ERZ8 whole entry, looked up): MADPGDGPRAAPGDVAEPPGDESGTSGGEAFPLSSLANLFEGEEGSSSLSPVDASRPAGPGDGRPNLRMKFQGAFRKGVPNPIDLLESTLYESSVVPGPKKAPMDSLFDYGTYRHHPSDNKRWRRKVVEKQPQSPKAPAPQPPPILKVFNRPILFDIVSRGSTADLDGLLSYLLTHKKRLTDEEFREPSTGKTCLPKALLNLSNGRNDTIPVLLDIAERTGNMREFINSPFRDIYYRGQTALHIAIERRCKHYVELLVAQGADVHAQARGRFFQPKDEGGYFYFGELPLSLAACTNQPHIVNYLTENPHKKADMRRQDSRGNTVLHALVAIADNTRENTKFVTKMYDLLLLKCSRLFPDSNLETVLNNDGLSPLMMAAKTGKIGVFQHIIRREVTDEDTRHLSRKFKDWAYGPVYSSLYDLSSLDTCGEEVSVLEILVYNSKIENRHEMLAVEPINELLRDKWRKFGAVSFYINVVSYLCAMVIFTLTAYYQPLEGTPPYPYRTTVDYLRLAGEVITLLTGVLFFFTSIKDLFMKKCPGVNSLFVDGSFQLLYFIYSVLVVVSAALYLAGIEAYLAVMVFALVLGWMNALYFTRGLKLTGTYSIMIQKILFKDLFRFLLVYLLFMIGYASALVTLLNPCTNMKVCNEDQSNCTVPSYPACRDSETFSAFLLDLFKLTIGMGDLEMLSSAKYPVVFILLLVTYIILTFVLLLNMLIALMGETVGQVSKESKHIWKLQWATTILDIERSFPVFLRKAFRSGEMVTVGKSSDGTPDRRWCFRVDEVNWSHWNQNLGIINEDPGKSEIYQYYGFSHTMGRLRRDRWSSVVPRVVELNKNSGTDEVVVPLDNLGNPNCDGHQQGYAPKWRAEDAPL
# T1 sequence (Q9WUD2 whole entry, looked up): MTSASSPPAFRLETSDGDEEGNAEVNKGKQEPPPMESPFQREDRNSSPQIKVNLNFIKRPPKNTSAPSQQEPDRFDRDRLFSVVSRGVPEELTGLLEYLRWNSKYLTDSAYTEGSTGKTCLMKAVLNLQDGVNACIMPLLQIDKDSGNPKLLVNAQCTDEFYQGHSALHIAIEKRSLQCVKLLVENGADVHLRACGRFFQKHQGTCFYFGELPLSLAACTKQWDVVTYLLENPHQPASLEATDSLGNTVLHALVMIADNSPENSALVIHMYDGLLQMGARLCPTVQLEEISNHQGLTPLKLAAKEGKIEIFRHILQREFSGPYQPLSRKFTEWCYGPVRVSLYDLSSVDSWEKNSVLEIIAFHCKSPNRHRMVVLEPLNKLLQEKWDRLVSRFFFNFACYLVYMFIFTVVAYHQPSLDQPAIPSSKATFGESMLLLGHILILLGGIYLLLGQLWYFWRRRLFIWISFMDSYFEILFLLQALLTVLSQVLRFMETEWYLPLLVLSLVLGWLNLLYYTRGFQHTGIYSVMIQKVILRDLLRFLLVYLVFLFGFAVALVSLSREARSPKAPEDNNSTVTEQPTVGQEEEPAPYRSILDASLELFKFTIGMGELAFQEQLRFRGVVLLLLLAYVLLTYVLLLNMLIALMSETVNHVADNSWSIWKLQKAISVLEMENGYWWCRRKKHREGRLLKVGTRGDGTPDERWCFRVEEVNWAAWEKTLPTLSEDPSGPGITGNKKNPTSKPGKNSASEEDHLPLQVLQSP
Ki [1],Cation influx [3],SMILES,further results
45.2 µM,,COc1cc(CC(=O)NCC(CCc2ccccc2)COC(C)=O)ccc1O (stereo unspecified),Cation influx [2]: Partially active
> 100 µM,inactive,COc1cc(CC(=O)OC/C(=C\COCc2ccccc2)COC(C)=O)ccc1O,
> 100 µM,inactive,COc1cc(CC(=O)OC/C(=C/COCc2ccccc2)COC(C)=O)ccc1O,
19.3 µM,,COc1cc(CC(=O)NCC(COC(C)=O)Cc2ccccc2)ccc1O (stereo unspecified),Cation influx [2]: Partially active
> 100 µM,inactive,COc1cc(CC(=O)OCC(COCc2ccccc2)COC(C)=O)ccc1O (stereo unspecified),
> 100 µM,inactive,COc1cc(CC(=O)OCC(COC(C)=O)Cc2ccccc2)ccc1O (stereo unspecified),
0.295 µM,,COc1cc(CC(=O)NCC(CCc2ccccc2)COC(=O)C(C)(C)C)ccc1O (stereo unspecified),Cation influx [5]: Active
0.48 µM,,COc1cc(CC(=O)NCC(/C=C/C(=O)OC(C)(C)C)Cc2ccccc2)ccc1O (stereo unspecified),Cation influx [5]: Active
> 100 µM,inactive,COc1cc(CC(=O)NCC(COC(C)=O)OCc2ccccc2)ccc1O (stereo unspecified),
78 µM,inactive,COc1cc(CC(=O)NCC(COCc2ccccc2)COC(C)=O)ccc1O (stereo unspecified),
0.404 µM,,COc1cc(CC(=O)NCC(COC(=O)C(C)(C)C)Cc2ccccc2)ccc1O (stereo unspecified),Cation influx [5]: Active
> 100 µM,inactive,COc1cc(CC(=O)OCC(COC(C)=O)OCc2ccccc2)ccc1O (stereo unspecified),
1.4 µM,,COc1cc(CC(=O)NCCCc2ccc(C)c(C)c2)ccc1OCCN [DAVASAICIN],Cation influx [6]: Active
1.22 µM,,COc1cc(CC(=O)NC/C(=C\Cc2ccccc2)COC(=O)C(C)(C)C)ccc1O,Cation influx [5]: Active

SMILES,Ki [1],Cation influx [3],further results
COc1cc(CC(=O)NC/C(=C\Cc2ccccc2)COC(C)=O)ccc1O,12.9 µM,,Cation influx [2]: Partially active
C=C(C)[C@]12C[C@@H](C)[C@@]34O[C@](Cc5ccccc5)(O[C@@H]1[C@@H]3C=C(COC(=O)Cc1ccc(O)c(OC)c1)C[C@]1(O)C(=O)C(C)=C[C@@H]41)O2 [RESINIFERATOXIN],2.3e-05 µM,,Cation influx [4]: Active
COc1cc(CC(=O)NC/C(=C/Cc2ccccc2)COC(C)=O)ccc1O,29.2 µM,,Cation influx [2]: Partially active
COC(=O)/C=C/C(CNC(=O)Cc1ccc(O)c(OC)c1)Cc1ccccc1 (stereo unspecified),13.5 µM,,Cation influx [2]: Partially active
